Reference: US9845323B2, “2-(1,3,4-oxadiazol-2-yl)-7-oxo-1,6-diazabicyclo[3.2.1 ]octane derivatives and their use as antibacterial agents” (WOCKHARDT LIMITED, priority 2014, dated 2017)
In brackets after ≈: the same amount, converted by molar mass. Like-named read-outs stand apart in the source and are kept apart here.

Key:
[1] = test system: E. coli NCTC 13353 (CTX-M15, OXA-1); test: Agar dilution MIC (CLSI), compound alone; assay type: cell-based
Method: (§1) The biological activity of representative compounds according to the invention against various bacterial strains was investigated. In a typical study, overnight grown bacterial cultures were diluted appropriately and inoculated on the agar media containing doubling dilutions of the test compounds. Observations for growth or no growth was performed after 16-20 hours of incubation at 35±2° C. in the ambient air. The overall procedure was performed as per Clinical and Laboratory Standards Institute (CLSI) recommendations, (Clinical and Laboratory Standards Institute (CLSI), Performance Standards for Antimicrobial Susceptibility Testing, 20th Informational Supplement, M 07-A9, Volume 32, No. 2, 2012). Molten Mueller Hinton Agar (BD, USA) containing serial dilutions of each antibacterial agent were poured on to the plates and allowed to solidify. Appropriate suspensions from the freshly grown cultures were prepared in normal saline so that about 10^4 CFU/spot of the organism was delivered on to the drug containing agar plates using automated multipoint inoculator (Mast, UK). The plates were incubated in Biochemical oxygen demand (BOD) incubator at 37° C. for 18 hours and then examined for growth.

[2] = test system: K. pneumoniae H521 (KPC, SHV, TEM); test: Agar dilution MIC (CLSI), compound alone; assay type: cell-based
Method: as §1

[3] = test system: K. Pneomoniae S48 (NDM, SHV, TEM); test: Agar dilution MIC (CLSI), compound alone; assay type: cell-based, K. pneumoniae
Method: as §1

[4] = biological target: T1, Class D beta-lactamase OXA 23 (A baumannii NCTC 13301) (Acinetobacter baumannii, UniProt Q9L4P2); test: Beta-lactamase enzyme inhibition (Nitrocefin, crude enzyme); assay type: biochemical; details: A baumannii NCTC 13301 (OXA 23), Nitrocefin 100 μM
T1 construct: preincubated mixture of crude enzyme and the compounds; endogenous in cells; host or cells: A. baumannii NCTC 13301 (crude enzyme preparation)
Method: (§2) Absorbance was measured at 485 nm by UV-spectrophotometer. The IC50 was calculated by plotting absorbance against concentration through Sigmoidal dose response curve using Graph Pad software.

[5] = biological target: Class A beta-lactamase SHV 18 (K. pneumoniae ATCC 700603) (Klebsiella pneumoniae, UniProt P0AD64); test: as above; assay type: biochemical
Method: as §2

[6] = test system: Class C beta-lactamase CMY/DHA (E. coli M50); test: as above; assay type: biochemical; details: Nitrocefin 100 μM
Method: as §2

E. coli M 50 = test: Agar dilution MIC of Ceftazidime, alone or with fixed 4 μg/ml compound; assay type: cell-based
Method: (§3) Agar dilution MIC was carried out in Muller Hinton Agar (Difco, USA) according to the recommendations of CLSI (M07-A9). In short, the plates were poured with a range of doubling increasing concentration of Ceftazidime and fixed 4 μg/ml compound according to invention containing MHA. The freshly overnight grown cultures were diluted in physiological saline to deliver per spot 10^4 CFU. The plates were inoculated with a multipoint inoculator (Mast, UK) and incubated at 35° C. for 18 hours. […] Table-5 provides the result of combination MIC results.

[7] = test system: K. pneumoniae ATCC 700606; test: as above; assay type: cell-based
Method: as §3

Citrobactor spp 58 MP = test: as above; assay type: cell-based
Method: as §3

E. coli NCTC 13353 = test: as above; assay type: cell-based
Method: as §3

K. pneumoniae H521 = test: as above; assay type: cell-based
Method: as §3

K. pneumoniae B 77 = test: Agar dilution MIC (CLSI), compound alone; assay type: cell-based; details: Klebsiella pneumoniae, B77; K. pneumoniae B 77; Table 3; read-out: MIC
Method: as §1

[8] = Escherichia coli, NCTC13353, E. coli NCTC 13353 (CTX-M15, OXA-1), compound alone, Table 2, read-out: MIC
[9] = Klebsiella pneumoniae, K. pneumoniae H521 (KPC, SHV, TEM), compound alone, Table 2, read-out: MIC
[10] = Klebsiella pneumoniae, K. Pneomoniae S48 (NDM, SHV, TEM), compound alone, Table 2, read-out: MIC
[11] = read-out: Beta-lactamase enzyme inhibition IC50, K. pneumoniae ATCC 700603 (SHV 18), Nitrocefin 100 μM
[12] = Ceftazidime + compound fixed at 4 mcg/ml

Class A beta-lactamase SHV 18 (K. pneumoniae ATCC 700603), sequence (P0AD64 22-286 limits assumed): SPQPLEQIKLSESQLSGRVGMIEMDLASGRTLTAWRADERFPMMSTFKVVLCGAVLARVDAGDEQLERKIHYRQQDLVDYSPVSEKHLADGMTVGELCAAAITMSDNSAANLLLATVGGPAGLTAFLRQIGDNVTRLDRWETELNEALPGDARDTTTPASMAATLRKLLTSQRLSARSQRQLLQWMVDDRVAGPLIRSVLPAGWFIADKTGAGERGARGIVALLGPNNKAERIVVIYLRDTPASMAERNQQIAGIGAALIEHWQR
T1 sequence (Q9L4P2 18-273): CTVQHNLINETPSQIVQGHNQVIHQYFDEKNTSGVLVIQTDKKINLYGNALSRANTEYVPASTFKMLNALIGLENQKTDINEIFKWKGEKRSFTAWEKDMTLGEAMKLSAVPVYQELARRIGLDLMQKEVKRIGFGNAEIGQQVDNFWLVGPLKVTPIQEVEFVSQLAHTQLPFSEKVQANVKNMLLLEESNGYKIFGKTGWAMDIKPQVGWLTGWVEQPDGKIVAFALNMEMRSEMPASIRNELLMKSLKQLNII

## O=C1N2C[C@@H](CC[C@H]2c2nnc(CC(c3ccccc3)c3ccccc3)o2)N1OS(=O)(=O)O [Example 9, (2S,5R)-sulfuric acid mono-{2-[5-(2,2-diphenyl-ethyl)-[1,3,4]-oxadiazol-2-yl]-7-oxo-1,6-diaza-bicyclo[3.2.1]oct-6-yl} ester]
[1]; [8]
  MIC: > 32 µg/mL
[2]; [9]
  MIC: > 32 µg/mL
[3]; [10]
  MIC: > 32 µg/mL
[4]
  IC50: 240 nM
[5]; [11]
  IC50: 4 nM

## CN(C)c1ccc(Cc2nnc([C@@H]3CC[C@@H]4CN3C(=O)N4OS(=O)(=O)O)o2)cc1 [Example 12, (2S,5R)-sulfuric acid mono-{2-[5-(4-dimethylamino-benzyl)-[1,3,4]-oxadiazol-2-yl]-7-oxo-1,6-diaza-bicyclo[3.2.1]oct-6-yl} ester]
[1]; [8]
  MIC: > 32 µg/mL
[2]; [9]
  MIC: > 32 µg/mL
[3]; [10]
  MIC: > 32 µg/mL
[6]
  IC50: 6 nM
[4]
  IC50: 97 nM
[5]; [11]
  IC50: 10 nM

## O=C1N2C[C@@H](CC[C@H]2c2nnc(C(c3ccccc3)c3ccccc3)o2)N1OS(=O)(=O)O [Example 8, (2S,5R)-sulfuric acid mono-[2-(5-benzhydryl-[1,3,4]-oxadiazol-2-yl)-7-oxo-1,6-diaza-bicyclo[3.2.1]oct-6-yl] ester]
[1]; [8]
  MIC: > 32 µg/mL
[2]; [9]
  MIC: > 32 µg/mL
[3]; [10]
  MIC: > 32 µg/mL
[6]
  IC50: 17 nM
[4]
  IC50: 8 nM
[5]; [11]
  IC50: 37 nM

## O=C1N2C[C@@H](CC[C@H]2c2nnc(CCc3ccccc3)o2)N1OS(=O)(=O)O [Example 6, (2S,5R)-sulfuric acid mono-[2-(5-phenyl-ethyl-[1,3,4]-oxadiazol-2-yl)-7-oxo-1,6-diaza-bicyclo[3.2.1]oct-6-yl] ester]
E. coli M 50; [12]
  MIC of Ceftazidime in combination with the compound: 8 µg/mL
[7]; [12]
  MIC of Ceftazidime in combination with the compound: 8 µg/mL
Citrobactor spp 58 MP; [12]
  MIC of Ceftazidime in combination with the compound: 4 µg/mL
E. coli NCTC 13353; [12]
  MIC of Ceftazidime in combination with the compound: 0.5 µg/mL
K. pneumoniae H521; [12]
  MIC of Ceftazidime in combination with the compound: > 32 µg/mL
[1]; E. coli NCTC 13353 (CTX-M15, OXA-1), compound alone, Table 2
  MIC: >32 µg/mL
[2]; K. pneumoniae H521 (KPC, SHV, TEM), compound alone, Table 2
  MIC: >32 µg/mL
[3]; K. Pneomoniae S48 (NDM, SHV, TEM), compound alone, Table 2
  MIC: >32 µg/mL
[6]
  IC50: 4 nM
[4]
  IC50: 220 nM
[5]; K. pneumoniae ATCC 700603 (SHV 18), Nitrocefin 100 μM, read-out: Beta-lactamase enzyme inhibition IC50
  IC50: 32 nM

## COc1ccc(Cc2nnc([C@@H]3CC[C@@H]4CN3C(=O)N4OS(=O)(=O)O)o2)cc1 [Example 14, (2S,5R)-sulfuric acid mono-{2-[5-(4-methoxy-benzyl)-[1,3,4]-oxadiazol-2-yl]-7-oxo-1,6-diaza-bicyclo[3.2.1]oct-6-yl} ester]
[1]; [8]
  MIC: > 32 µg/mL
[2]; [9]
  MIC: > 32 µg/mL
[3]; [10]
  MIC: > 32 µg/mL
[6]
  IC50: 13 nM
[4]
  IC50: 80 nM

## O=C1N2C[C@@H](CC[C@H]2c2nnc(Cc3ccc(Cl)cc3)o2)N1OS(=O)(=O)O [Example 10, (2S,5R)-sulfuric acid mono-{2-[5-(4-chloro-benzyl)-[1,3,4]-oxadiazol-2-yl]-7-oxo-1,6-diaza-bicyclo[3.2.1]oct-6-yl} ester]
[1]; Escherichia coli, NCTC13353
  MIC: > 32 µg/mL
[2]; Klebsiella pneumoniae
  MIC: > 32 µg/mL
[3]; Klebsiella pneumoniae
  MIC: > 32 µg/mL
[6]
  IC50: 10 nM
[4]
  IC50: 108 nM

## O=C1N2C[C@@H](CC[C@H]2c2nnc(CCCc3ccccc3)o2)N1OS(=O)(=O)O [Example 7, (2S,5R)-sulfuric acid mono-{2-[5-(3-phenyl-propyl)-[1,3,4]-oxadiazol-2-yl]-7-oxo-1,6-diaza-bicyclo[3.2.1]oct-6-yl} ester]
[1]; [8]
  MIC: > 32 µg/mL
[2]; [9]
  MIC: > 32 µg/mL
[3]; [10]
  MIC: 32 µg/mL (≈ 78.3 µM)
[6]
  IC50: 4 nM
[4]
  IC50: 115 nM
[5]; [11]
  IC50: 40 nM

## O=C(O)[C@H]1/C(=C/CO)O[C@@H]2CC(=O)N21 [Clavulanic acid, clavulanic acid, reference compound]
[6]
  IC50: > 10000 nM

## Nc1ccc(Cc2nnc([C@@H]3CC[C@@H]4CN3C(=O)N4OS(=O)(=O)O)o2)cc1 [Example 11, (2S,5R)-sulfuric acid mono-{2-[5-(4-amino-benzyl)-[1,3,4]-oxadiazol-2-yl]-7-oxo-1,6-diaza-bicyclo[3.2.1]oct-6-yl} ester]
[1]; Escherichia coli, NCTC13353
  MIC: > 32 µg/mL
[2]; Klebsiella pneumoniae
  MIC: > 32 µg/mL
[3]; Klebsiella pneumoniae
  MIC: 32 µg/mL (≈ 80.9 µM)
[6]
  IC50: 13 nM
[4]
  IC50: 108 nM

## O=C1N2C[C@@H](CC[C@H]2c2nnc(Cc3ccc(O)cc3)o2)N1OS(=O)(=O)O [Example 13, (2S,5R)-sulfuric acid mono-{2-[5-(4-hydroxy-benzyl)-[1,3,4]-oxadiazol-2-yl]-7-oxo-1,6-diaza-bicyclo[3.2.1]oct-6-yl} ester]
[1]; Escherichia coli, NCTC13353
  MIC: > 32 µg/mL
[2]; Klebsiella pneumoniae
  MIC: > 32 µg/mL
[3]; Klebsiella pneumoniae
  MIC: > 32 µg/mL
[6]
  IC50: 0.1 nM
[4]
  IC50: 39 nM
[5]; [11]
  IC50: 13 nM

## O=C1N2C[C@@H](CC[C@H]2c2nnc(C[C@@H]3CCCN3)o2)N1OS(=O)(=O)O [Example 2, (2S,5R)-sulfuric acid mono-[2-(5-(S)-pyrrolidin-2-ylmethyl-[1,3,4]-oxadiazol-2-yl)-7-oxo-1,6-diaza-bicyclo[3.2.1]oct-6-yl] ester]
[1]; [8]
  MIC: > 32 µg/mL
[2]; [9]
  MIC: > 32 µg/mL
[3]; [10]
  MIC: 32 µg/mL (≈ 85.7 µM)
[4]
  IC50: 12900 nM
[5]; [11]
  IC50: 27 nM

## O=C1N2C[C@@H](CC[C@H]2c2nnc(CC3CCNCC3)o2)N1OS(=O)(=O)O [Example 3, (2S,5R)-sulfuric acid mono-[2-(5-piperidin-4-ylmethyl-[1,3,4]-oxadiazol-2-yl)-7-oxo-1,6-diaza-bicyclo[3.2.1]oct-6-yl] ester]
[1]; Escherichia coli, NCTC13353
  MIC: > 32 µg/mL
[2]; Klebsiella pneumoniae
  MIC: > 32 µg/mL
[3]; Klebsiella pneumoniae
  MIC: > 32 µg/mL
[6]
  IC50: 20 nM
[4]
  IC50: 5720 nM
[5]; [11]
  IC50: 39 nM

## NC(=O)[C@@H]1CC[C@@H]2CN1C(=O)N2OS(=O)(=O)O [Avibactam, avibactam, reference compound]
K. pneumoniae B 77
  MIC: 32 µg/mL (≈ 121 µM)
[6]
  IC50: 146 nM
[5]; [11]
  IC50: 98 nM

## O=C1N2C[C@@H](CC[C@H]2c2nnc(CC3CNCCN3)o2)N1OS(=O)(=O)O (stereo partly drawn) [Example 4, (2S,5R)-sulfuric acid mono[2-(5-(RS)-piperazin-2-ylmethyl-[1,3,4]-oxadiazol-2-yl)-7-oxo-1,6-diaza-bicyclo[3.2.1]oct-6-yl] ester]
[1]; Escherichia coli, NCTC13353, 18 h, E. coli NCTC 13353 (CTX-M15, OXA-1), compound alone, Table 2, read-out: MIC
  MIC: > 32 µg/mL
[2]; Klebsiella pneumoniae, 18 h, K. pneumoniae H521 (KPC, SHV, TEM), compound alone, Table 2, read-out: MIC
  MIC: > 32 µg/mL
[3]; Klebsiella pneumoniae, 18 h, K. Pneomoniae S48 (NDM, SHV, TEM), compound alone, Table 2, read-out: MIC
  MIC: > 32 µg/mL
[4]
  IC50: 410 nM
[5]; [11]
  IC50: 27 nM

## O=C1N2C[C@@H](CC[C@H]2c2nnc(CC3CNC3)o2)N1OS(=O)(=O)O [Example 1, (2S,5R)-Sulfuric acid mono-[2-(5-azetidin-3-ylmethyl-1,3,4-oxadiazol-2-yl)-7-oxo-1,6-diaza-bicyclo[3.2.1]oct-6-yl]ester]
[1]; [8]
  MIC: > 32 µg/mL
[2]; [9]
  MIC: > 32 µg/mL
[3]; [10]
  MIC: > 32 µg/mL
[6]
  IC50: 402 nM
[4]
  IC50: 3950 nM
[5]; [11]
  IC50: 27 nM

## CC(C)(O/N=C(\C(=O)N[C@@H]1C(=O)N2C(C(=O)[O-])=C(C[n+]3ccccc3)CS[C@H]12)c1csc(N)n1)C(=O)O [Ceftazidime, ceftazidime, reference compound]
E. coli M 50; Ceftazidime alone, Table 5
  MIC of Ceftazidime alone: > 32 µg/mL
[7]; Ceftazidime alone, Table 5
  MIC of Ceftazidime alone: 32 µg/mL
Citrobactor spp 58 MP; Ceftazidime alone, Table 5
  MIC of Ceftazidime alone: 16 µg/mL
E. coli NCTC 13353; Ceftazidime alone, Table 5
  MIC of Ceftazidime alone: 32 µg/mL
K. pneumoniae H521; Ceftazidime alone, Table 5
  MIC of Ceftazidime alone: > 32 µg/mL
